{"source": "patent US10485845B2", "about": "“Neuronal pain pathway” (THE TRUSTEES OF COLUMBIA UNIVERSITY IN THE CITY OF NEW YORK, priority 2005, dated 2019)", "key": {"[1]": {"test_system": "PKG", "settings": "see Setyawan et al., 1999; read-out: inhibitory of PKG at concentration of; cited from earlier work"}, "[2]": {"test_system": "Aplysia SNs", "test": "Induction of LTH in axotomized SNs in vitro (electrophysiology)", "assay_type": "cell-based, Aplysia californica", "settings": "inhibitor added to 2-d-cultured SN"}, "[3]": {"test_system": "apMAPK", "test": "Axotomy-induced apMAPK nuclear translocation in SNs (D8 antibody immunostaining, confocal microscopy)", "assay_type": "cell-based, Aplysia", "settings": "10 μM, SNs in vitro; for nuclear staining of apMAPK: fixed on the third day", "experimental": "Equal amounts of Alexa Fluor 546-labeled BSA, apPKG, or ERK1 were microinjected into the cytoplasm of SNs after 2 d in vitro. The neurites were then severed with a fine needle to elicit an injury response, and 30 min later, the cells were examined by confocal microscopy. […] Scale bar, 20 μm. B, Rp-8-pCPT-cGMPs inhibits axotomy-induced apMAPK nuclear translocation. SNs untreated as controls, and those exposed to either 10 μM Rp-8-pCPT-cGMPs (Rp-cGMPs) or Rp-cAMPs for 2 d in vitro, were immunostained with D8 antibody to localize apMAPK. Top, Representative examples of 2 μm optical sections of control SNs and those exposed to Rp-8-pCPT-cGMPs or Rp-cAMPs. Scale bar, 20 μm. Bottom, Histogram of the mean value of nuclear MAPK immunoreactivity. The staining intensity was determined by a person who was blind to the treatment that the cells received. n, Number of cells for each treatment. Asterisk indicates significant difference from control (p<0.05 by ANOVA and Newman-Keuls tests).\nGanglia, nerve, or cultured cells were fixed with 4% paraformaldehyde in PBS, pH 7.4. The primary antibody was diluted in TBS supplemented with 0.1-0.5% Triton X-100 in TBS and 5% goat serum, and incubated overnight at 4° C. After several washes, an Alexa Fluor 594- or 488-conjugated secondary antibody (Molecular Probes, Eugene, Oreg.) was applied for 1 hr at room temperature. Subsequently, the cells were visualized by confocal fluorescence microscopy (LSM510 confocalmicroscope; Zeiss, Oberkochen, Germany), and images were collected.\nThe inability of apPKG to enter the nucleus of Aplysia SNs is consistent with the idea that it contributes to the induction of LTH by promoting the nuclear import of apMAPK. If so, then inhibiting the apPKG pathway should block the axotomy-induced entry of apMAPK into the nucleus. Therefore, SNs were exposed in vitro either to the PKG blocker, Rp-8-pCPTcGMPS, or the PKA blocker, Rp-cAMPS, under the conditions that induce LTH (FIG. 6A). On the third day, the cells were fixed, permeabilized, and exposed to antibody D8 to visualize ap-MAPK. […]"}, "[4]": {"test_system": "Aplysia SNs", "test": "Induction of LTH in axotomized SNs in vitro (electrophysiology)", "assay_type": "cell-based, Aplysia californica", "settings": "for decrease in spike threshold / increase in repetitive firing: 10 μM, SNs grown in presence of inhibitor, third day in vitro", "experimental": "FIG. 6A-D. Inhibiting NOS, sGC, or apPKG prevents the induction of LTH in SNs in vitro. SNs were removed from the cluster and grown in vitro in the presence of Rp-8-pCPT-cGMPS (RpcGMPS), Rp-8-pCPT-cAMPS (RpcAMPS), or ODQ (all 10 μM). Other SNs removed at the same time were not exposed to any inhibitors as controls (C). A, B, On the third day in vitro, 12 SNs exposed to Rp-cGMPS, Rp-cAMPS, or ODQ, and 12 control SNs were impaled with a microelectrode to assess repetitive firing in response to stimulation at three test currents (A) and to determine spike threshold (B). We examined the cells on the third day, and not later, to avoid more prolonged exposure to the drugs. […] Error bars indicate SEM, and the asterisks indicate significance (p<0.0001 in each case). […] C, Detection of nNOS mRNA in single SNs by RT-PCR. Fragments of appropriate lengths were amplified with primer sets for apnNOS, sensorin A, and the neuron-specific isoform of actin from five separate sets of samples from SNs in vivo (0) or after 16 hr in vitro. The size of the synthesized fragments detected by ethidium bromide staining on 2% agarose gels were identical with those predicted from the known sequences in the database. In addition, the PCR products were verified by DNA sequence analysis. Finally, there was no amplification in the absence of reverse transcriptase, indicating the RNA preparations were not contaminated by genomic DNA (bottom panel). Positions of molecular markers are indicated on the left. D, Effects of the NOS inhibitors on LTH. L-Thiocitrulline (50 μM) and L-NAME (1 mM) were used as described above. n, Number of SNs. The data were normalized to the average excitability of control cells in the same preparation. The asterisk indicates significance (p<0.001), comparing LTH with and without inhibitor by ANOVA and Dunnett's test. Error bars indicate SEM.\nMedium was changed every 2 d. Drugs were washed out 1 hr before electrophysiological tests.\nBefore the start of each recording, the hemolymph was replaced with a 1:1 mixture of artificial seawater and culture medium (without hemolymph; pH 7.6). Standard techniques were used for intracellular stimulation and recording (Ambron et al., 1996). The soma spike threshold was measured with a standard series of 20 msec depolarizing pulses. Repetitive firing was quantified by counting the number of spikes evoked by a series of 2 sec depolarizing pulses at 1, 2, 3, 4, and 5 nA, or 1 sec depolarizing pulses at 2.5 times the current for the 20 msec threshold. Spike amplitude was measured from baseline to the peak of the action potential, and spike duration was the breadth of the action potential at one-half of its maximal height.\nTo investigate whether the appearance of the LTH requires apPKG activity, the SNs were removed from the ganglion in the presence of either the soluble guanylyl cyclase (sGC) inhibitor ODQ, the PKG inhibitor Rp-8-pCPT-cGMPS, or the PKA inhibitor Rp-cAMPS. The latter was used because PKA has properties in common with PKG (Scott, 1991; Francis and Corbin, 1994) and has been implicated in various forms of synaptic plasticity in Aplysia SNs (Ghirardi et al., 1992; Byrne and Kandel, 1996; Bedi et al., 1998; Muller and Carew, 1998; Chain et al., 1999; Liao et al., 1999; Sutton and Carew, 2000; Antonov et al., 2003). The cells were subsequently allowed to regenerate in the presence of the inhibitors in vitro, and on the third day, their electrophysiological properties were compared with those of SNs that were removed from the same ganglia at the same time, but that had not been exposed to a drug. […] Neither spike broadening nor amplitude were evaluated in these experiments."}, "[5]": {"target": "apPKG", "test": "In vitro kinase assay of recombinant apPKG (32P transfer from ATP to BPDEtide)", "assay_type": "biochemical, Aplysia", "settings": "100 nM 8-Br-cGMP, BPDEtide substrate", "experimental": "FIG. 2A-C. apPKG is a type-1 PKG. […] Activity caused by autophosphorylation was subtracted using a peptide control reaction (see Materials and Methods). Note that the kinase activity was inhibited in the presence of 10 μM PKG inhibitor Rp-8-pCPT-cGMPS (RP-G). B, Kinase activity of active recombinant apPKG (25 ng) and bovine PKG type-Iα (bPKG Iα (50 ng) in the presence of four type-I PKG peptide substrates: peptide A, RKISASGP (SEQ ID NO:21); B, RKISASEFDRPLR (SEQ ID NO:22; BPDEtide); and D, RKRSRAE (SEQ ID NO:23) H2Btide). Peptide C, QKRPRRKDTP (SEQ ID NO:24), is a type-II PKG substrate. C, apPKG phosphorylates recombinant VASP at serine-239. Purified recombinant VASP-GST (0.5 μg) was incubated with active apPKG (100 ng) or the recombinant bovine PKG (50 ng), or in the kinase buffer alone, at room temperature for 20 min. After SDS-PAGE, a Western blot was probed with an anti-phospho-VASP (Ser 239) (p-VASP 5239) antibody.\nThese studies establish apPKG as a member of the soluble type-I family of PKGs."}, "[6]": {"test_system": "PKG", "test": "Blocking of PKG activity at the site of sciatic nerve injury in rat", "assay_type": "in vivo", "settings": "nerve injured in presence of inhibitor; four hours after injury", "experimental": "FIG. 9. Relative PKG activity at various positions of the sciatic nerve relative to point of injury, shown schematically above the graph.\nThe experiment was carried out as follows. A rat was anesthetized using a standard protocol and the sciatic nerve was exposed and injured in either the absence or the presence of RP-G, or an inhibitor of PKA, Rp-8-pCPT-cAMPS, (“RP-A”). Four hours later, the nerve was sectioned as shown in the schematic above the graph in FIG. 9, and each segment was assayed for PKG activity. In the absence of inhibitor (black bars), active PKG had been transported toward the cell bodies and was enriched in P3."}, "[7]": {"test_system": "apMAPK", "protocol": "Top, Left, Twenty-five micrograms of a pleural ganglia lysate collected at the indicated times after p5-p9 nerve crush were resolved by SDS-PAGE, and a Western blot was probed with Ab pTpYmapk to detect active ERK-MAPKs. […] All of the values were normalized to levels of total apMAPK. […] Each of the following experiments (B-E) was repeated twice at least, and representative results are shown. […] Left, Pleural neurons were removed from a noninjured animal, a lysate was prepared, and 25 μg was incubated with 100 ng of active apPKG protein or with 1 μM 8-Br-cGMP in the presence or absence of 10 μM U0126. Right, Twenty-five micrograms of axoplasm was incubated with active apPKG as above. Active apMAPK was detected by immunoblotting with Ab pTpYmapk.\nERK activity was assayed as described (Sung et al., 2001). Briefly, proteins and 500 μM ATP were incubated in kinase buffer for 20 min at room temperature. The reaction mixtures were resolved on 10% SDS polyacrylamide gels and subjected to Western blotting with antibody (Ab)pTpYmapk, AbpYmapk, AbpTmapk, or AbpElk1."}, "[8]": {"test_system": "rats", "settings": "intrathecal, 10 and 60 minutes later; cited from earlier work"}, "[9]": {"test_system": "Aplysia SNs", "settings": "SNs exposed to drug in vitro", "experimental": "SNs were isolated from the pleural ganglia of 50-80 gm animals and were plated on poly-L-lysine-coated dishes containing L15 medium and 50% hemolymph (Dagan and Levitan, 1981; Glanzman etal., 1989). Cultures were maintained at 18° C. for up to 7 d. Medium was changed every 2 d. Drugs were washed out 1 hr before electrophysiological tests."}}, "note": "Entries after “also recorded” stand apart in the source; their conditions may differ.", "data": [{"compound": "10″ deoxybalanol", "values": [{"measurement": "IC50", "setting": "[1]", "result": 31, "unit": "nM"}]}, {"compound": "14″ decarboxy balanol", "values": [{"measurement": "IC50", "setting": "[1]", "result": 19, "unit": "nM"}]}, {"compound": "Nc1nc2c(nc(Sc3ccc(Cl)cc3)n2C2OC3COP(O)(=S)OC3C2O)c(=O)[nH]1", "note": "(single isomer, unassigned) [Rp-8-pCPT-cGMPS, guanosine 3′,5′-cyclic monophosphorothioate, 8-(4-chlorophenylthio)-, Rp isomer]", "values": [{"measurement": "appearance of excitability", "setting": "[2]", "result": "Neither Rp-8-pCPT-cGMPS nor ODQ inhibited"}, {"measurement": "reduction in the level of apMAPK in the nucleus of the SNs", "setting": "[3]", "result": "nearly threefold reduction"}, {"measurement": "nuclear staining of apMAPK", "setting": "[3]", "result": "dramatic reduction"}, {"measurement": "decrease in spike threshold", "setting": "[4]", "result": "prevented"}, {"measurement": "increase in repetitive firing", "setting": "[4]", "result": "prevented"}, {"measurement": "decrease in spike threshold", "setting": "[4]; listed as Rp-cGMPS", "result": "significantly prevented"}, {"measurement": "increase in repetitive firing", "setting": "[4]; listed as Rp-cGMPS", "result": "significantly reduced"}, {"measurement": "kinase activity of purified inactive recombinant apPKG", "setting": "[5]; 10 μM inhibitor", "result": "inhibited"}, {"measurement": "PKG activity in sciatic nerve segments", "setting": "[6]", "result": "abolished the activity"}]}, {"compound": "Nc1ncnc2c1ncn2[C@@H]1O[C@@H]2COP(O)(=S)O[C@H]2[C@H]1O", "note": "(single isomer, unassigned) [Rp-cAMPS, adenosine 3′,5′-cyclic monophosphorothioate, Rp isomer]", "values": [{"measurement": "nuclear staining of apMAPK", "setting": "[3]", "result": "same levels"}, {"measurement": "decrease in spike threshold", "setting": "[4]", "result": "no significant effect; also recorded: not significant"}, {"measurement": "increase in repetitive firing", "setting": "[4]", "result": "no significant effect"}]}, {"compound": "Nc1nc2c(nc(Br)n2[C@@H]2O[C@@H]3COP(=O)(O)O[C@H]3[C@H]2O)c(=O)[nH]1", "note": "[8-Br-cGMP]", "values": [{"measurement": "level of active apMAPK", "setting": "[7]; 1 μM 8-Br-cGMP added to 25 μg lysate", "result": "markedly enhanced"}, {"measurement": "activation of inactive apPKG", "setting": "[5]", "result": "activated"}]}, {"compound": "COC(=O)[C@@H](N)CCCN=C(N)N[N+](=O)[O-].Cl", "note": "[L-NAME, N^G-nitro-L-arginine methyl ester hydochioride]", "values": [{"measurement": "LTH (maximum firing relative to untreated controls)", "setting": "[4]; 1 mM, SNs in vitro", "result": "reduced LTH"}]}, {"compound": "NC(=S)NCCC[C@H](N)C(=O)O", "note": "[L-Thiocitrulline, L-thiocitrulline]", "values": [{"measurement": "maximum firing relative to untreated controls (LTH)", "setting": "[4]; 50 μM, SNs in vitro", "result": "markedly reduced"}]}, {"compound": "O=c1onc2cnc3ccccc3n12", "note": "[ODQ, 1-H[1,2,4]oxadiazolo[4,3-a]quinoxalin-1-one]", "values": [{"measurement": "appearance of excitability", "setting": "[2]", "result": "Neither Rp-8-pCPT-cGMPS nor ODQ inhibited"}, {"measurement": "decrease in spike threshold", "setting": "[4]", "result": "significantly prevented"}, {"measurement": "increase in repetitive firing", "setting": "[4]", "result": "prevented; also recorded: significantly reduced"}]}, {"compound": "Nc1ncnc2c1nc(Sc1ccc(Cl)cc1)n2C1OC2COP(O)(=S)OC2C1O", "note": "(stereo not drawn) [RP-A, Rp-8-pCPT-cAMPS]", "values": [{"measurement": "PKG activity in sciatic nerve segments", "setting": "[6]", "result": "did not change this pattern"}]}, {"compound": "CCN(CC)CC.Nc1nc2c(nc(Sc3ccc(Cl)cc3)n2[C@@H]2O[C@@H]3COP(O)(=S)O[C@H]3[C@H]2O)c(=O)[nH]1", "note": "(stereo partly drawn) [Rp-8-[4-chlorophenyl)thio-cGMPS triethylamine]", "values": [{"measurement": "antinociception", "setting": "[8]", "result": "significant antinociception"}]}, {"compound": "N#CC(=C(/N)Sc1ccccc1N)/C(C#N)=C(\\N)Sc1ccccc1N", "note": "[U0126]", "values": [{"measurement": "block of apMAPK activation by active apPKG or 8-Br-cGMP", "setting": "[7]; 10 μM U0126", "result": "not blocked"}, {"measurement": "extent or pattern of neurite growth", "setting": "[9]", "result": "severe growth defects"}]}, {"compound": "O=C(NC1CNCCCC1OC(=O)c1cc(O)c(C(=O)c2c(O)cccc2C(=O)O)c(O)c1)c1ccc(O)cc1", "note": "(stereo not drawn) [balanol]", "values": [{"measurement": "IC50", "setting": "[1]", "result": 1.6, "unit": "nM"}]}, {"compound": "balanol-7R", "values": [{"measurement": "IC50", "setting": "[1]", "result": 291, "unit": "nM"}]}]}
